{"source": "ChEMBL document CHEMBL1139881", "about": "“A tetrazolyl-substituted subtype-selective AMPA receptor agonist” (J Med Chem, 2007)", "key": {"[1]": {"target": "Glutamate receptor 4 (Rattus norvegicus, UniProt P19493)", "experiment": "biochemical", "description": "Displacement of [3H]AMPA from rat recombinant GluR4 expressed in Sf9 cells"}, "[2]": {"target": "Glutamate NMDA receptor", "experiment": "Displacement of [3H][…] from NMDA receptor in rat synaptosomes", "format": "subcellular, Brain"}, "[3]": {"experiment": "Displacement of [3H]KA from kainate receptor in rat synaptosomes", "format": "subcellular, Brain"}, "[4]": {"target": "Glutamate receptor ionotropic, kainate 2 (Rattus norvegicus, UniProt P42260)", "sequence (P42260 whole entry)": "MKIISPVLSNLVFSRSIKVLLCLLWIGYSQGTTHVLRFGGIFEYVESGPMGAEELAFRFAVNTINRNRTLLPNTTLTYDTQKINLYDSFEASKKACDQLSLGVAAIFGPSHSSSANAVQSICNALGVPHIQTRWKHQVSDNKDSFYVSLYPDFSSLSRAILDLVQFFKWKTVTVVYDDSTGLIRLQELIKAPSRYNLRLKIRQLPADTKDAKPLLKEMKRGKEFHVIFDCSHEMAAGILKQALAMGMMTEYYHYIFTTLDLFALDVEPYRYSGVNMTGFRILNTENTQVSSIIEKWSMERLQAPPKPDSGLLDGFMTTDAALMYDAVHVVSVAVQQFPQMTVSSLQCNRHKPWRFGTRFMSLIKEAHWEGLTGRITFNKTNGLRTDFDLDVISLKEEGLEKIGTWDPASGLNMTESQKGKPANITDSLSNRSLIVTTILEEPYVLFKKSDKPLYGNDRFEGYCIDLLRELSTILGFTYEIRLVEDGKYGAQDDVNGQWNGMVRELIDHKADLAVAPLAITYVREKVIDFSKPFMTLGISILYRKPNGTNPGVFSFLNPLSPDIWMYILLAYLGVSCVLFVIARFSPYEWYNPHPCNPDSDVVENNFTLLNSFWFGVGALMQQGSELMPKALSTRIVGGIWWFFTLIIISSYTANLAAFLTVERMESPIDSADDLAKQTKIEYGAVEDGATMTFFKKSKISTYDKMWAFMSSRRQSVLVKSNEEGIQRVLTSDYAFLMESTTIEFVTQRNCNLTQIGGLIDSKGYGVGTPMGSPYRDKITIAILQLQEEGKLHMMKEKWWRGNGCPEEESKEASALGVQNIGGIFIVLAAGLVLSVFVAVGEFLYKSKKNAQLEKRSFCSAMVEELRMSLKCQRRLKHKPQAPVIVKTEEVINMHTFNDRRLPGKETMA", "experiment": "Displacement of [3H]KA from rat recombinant GluR6 expressed in Sf9 cells"}, "[5]": {"target": "Glutamate receptor ionotropic, kainate 1 (Rattus norvegicus, UniProt P22756)", "sequence (P22756 whole entry)": "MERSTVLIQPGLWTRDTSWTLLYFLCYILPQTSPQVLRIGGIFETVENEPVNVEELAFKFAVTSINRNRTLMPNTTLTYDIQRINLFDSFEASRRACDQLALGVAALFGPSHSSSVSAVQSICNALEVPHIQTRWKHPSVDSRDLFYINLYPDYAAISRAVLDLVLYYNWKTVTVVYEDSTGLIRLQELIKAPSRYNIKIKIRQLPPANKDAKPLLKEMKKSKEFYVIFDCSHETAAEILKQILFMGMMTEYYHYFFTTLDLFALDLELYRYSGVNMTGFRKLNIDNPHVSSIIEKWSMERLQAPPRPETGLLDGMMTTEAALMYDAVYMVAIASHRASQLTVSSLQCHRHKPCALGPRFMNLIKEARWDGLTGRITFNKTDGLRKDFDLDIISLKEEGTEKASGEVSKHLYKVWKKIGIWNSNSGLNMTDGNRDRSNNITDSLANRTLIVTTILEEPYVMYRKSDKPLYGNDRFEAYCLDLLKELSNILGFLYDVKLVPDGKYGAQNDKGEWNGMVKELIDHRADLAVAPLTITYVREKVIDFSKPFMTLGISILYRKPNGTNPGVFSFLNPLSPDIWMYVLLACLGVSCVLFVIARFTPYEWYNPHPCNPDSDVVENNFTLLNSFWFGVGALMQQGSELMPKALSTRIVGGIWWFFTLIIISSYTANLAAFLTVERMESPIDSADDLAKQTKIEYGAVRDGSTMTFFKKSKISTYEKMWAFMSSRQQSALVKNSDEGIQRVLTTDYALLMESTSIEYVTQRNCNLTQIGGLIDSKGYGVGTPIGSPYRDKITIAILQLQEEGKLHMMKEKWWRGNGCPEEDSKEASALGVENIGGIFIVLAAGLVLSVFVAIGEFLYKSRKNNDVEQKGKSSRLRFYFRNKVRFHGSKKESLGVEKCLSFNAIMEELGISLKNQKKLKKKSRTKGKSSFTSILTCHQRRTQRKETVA", "experiment": "biochemical", "description": "Displacement of [3H]SYM 2081 from rat recombinant GluR5 expressed in Sf9 cells"}, "[6]": {"target": "Glutamate receptor 2 (Rattus norvegicus, UniProt P19491)", "sequence (P19491 whole entry)": "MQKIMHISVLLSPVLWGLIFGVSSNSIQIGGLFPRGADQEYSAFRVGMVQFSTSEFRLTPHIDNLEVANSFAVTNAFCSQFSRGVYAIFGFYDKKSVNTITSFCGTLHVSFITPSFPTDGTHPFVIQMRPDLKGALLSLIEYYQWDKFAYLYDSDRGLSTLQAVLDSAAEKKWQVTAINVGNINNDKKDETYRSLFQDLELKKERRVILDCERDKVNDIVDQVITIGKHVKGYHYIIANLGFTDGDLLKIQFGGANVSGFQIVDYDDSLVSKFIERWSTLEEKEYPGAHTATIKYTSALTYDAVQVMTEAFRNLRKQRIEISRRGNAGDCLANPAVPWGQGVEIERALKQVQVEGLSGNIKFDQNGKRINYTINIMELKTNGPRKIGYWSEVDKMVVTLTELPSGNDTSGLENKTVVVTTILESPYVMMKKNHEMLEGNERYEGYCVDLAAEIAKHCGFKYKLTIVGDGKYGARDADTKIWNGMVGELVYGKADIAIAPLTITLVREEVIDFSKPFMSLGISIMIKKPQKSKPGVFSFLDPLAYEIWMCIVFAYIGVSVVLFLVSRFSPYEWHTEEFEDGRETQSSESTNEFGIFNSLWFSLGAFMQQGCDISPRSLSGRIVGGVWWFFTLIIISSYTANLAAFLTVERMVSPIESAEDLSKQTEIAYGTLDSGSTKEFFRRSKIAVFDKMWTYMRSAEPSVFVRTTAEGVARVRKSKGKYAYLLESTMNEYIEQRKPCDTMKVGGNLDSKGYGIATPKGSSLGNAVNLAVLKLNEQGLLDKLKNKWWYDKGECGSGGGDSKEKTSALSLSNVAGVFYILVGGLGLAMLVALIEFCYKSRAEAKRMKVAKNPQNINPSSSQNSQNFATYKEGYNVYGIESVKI", "experiment": "biochemical", "description": "Displacement of [3H]AMPA from rat recombinant GluR2 expressed in Sf9 cells"}, "[7]": {"experiment": "Displacement of [3H]AMPA from AMPA receptor in rat synaptosomes", "format": "subcellular, Brain"}, "[8]": {"target": "Glutamate NMDA receptor", "experiment": "Displacement of [3H]CGP 39653 from NMDA receptor in rat synaptosomes", "format": "subcellular, Brain"}, "[9]": {"experiment": "Activity at ionotropic GluR in rat cortical wedge by electrophysiology assay"}, "[10]": {"target": "Glutamate receptor 3 (Rattus norvegicus, UniProt P19492)", "sequence (P19492 whole entry)": "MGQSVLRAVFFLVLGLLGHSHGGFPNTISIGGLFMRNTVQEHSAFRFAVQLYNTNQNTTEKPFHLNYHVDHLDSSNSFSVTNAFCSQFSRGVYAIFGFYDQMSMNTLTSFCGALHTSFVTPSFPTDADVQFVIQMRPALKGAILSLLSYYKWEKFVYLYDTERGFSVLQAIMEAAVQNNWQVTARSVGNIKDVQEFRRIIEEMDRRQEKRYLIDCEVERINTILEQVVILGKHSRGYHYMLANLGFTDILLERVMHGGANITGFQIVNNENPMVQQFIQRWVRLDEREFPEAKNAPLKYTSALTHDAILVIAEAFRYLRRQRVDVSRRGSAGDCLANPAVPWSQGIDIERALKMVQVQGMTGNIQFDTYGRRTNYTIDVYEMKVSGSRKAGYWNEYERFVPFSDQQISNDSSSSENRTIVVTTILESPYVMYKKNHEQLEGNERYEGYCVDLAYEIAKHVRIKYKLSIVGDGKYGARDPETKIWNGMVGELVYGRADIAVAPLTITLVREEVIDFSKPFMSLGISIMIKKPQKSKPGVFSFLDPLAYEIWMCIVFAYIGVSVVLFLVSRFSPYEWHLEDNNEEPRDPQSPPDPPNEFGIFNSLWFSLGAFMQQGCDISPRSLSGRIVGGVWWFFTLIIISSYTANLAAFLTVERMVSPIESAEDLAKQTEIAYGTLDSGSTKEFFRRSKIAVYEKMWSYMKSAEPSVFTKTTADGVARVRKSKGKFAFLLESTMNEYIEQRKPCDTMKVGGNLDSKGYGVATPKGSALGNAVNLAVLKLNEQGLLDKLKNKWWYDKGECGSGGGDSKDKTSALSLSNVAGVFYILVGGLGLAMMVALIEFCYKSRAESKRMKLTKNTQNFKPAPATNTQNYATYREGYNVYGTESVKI", "experiment": "biochemical", "description": "Displacement of [3H]AMPA from rat recombinant GluR3 expressed in Sf9 cells"}, "[11]": {"target": "Glutamate receptor 1 (Rattus norvegicus, UniProt P19490)", "sequence (P19490 whole entry)": "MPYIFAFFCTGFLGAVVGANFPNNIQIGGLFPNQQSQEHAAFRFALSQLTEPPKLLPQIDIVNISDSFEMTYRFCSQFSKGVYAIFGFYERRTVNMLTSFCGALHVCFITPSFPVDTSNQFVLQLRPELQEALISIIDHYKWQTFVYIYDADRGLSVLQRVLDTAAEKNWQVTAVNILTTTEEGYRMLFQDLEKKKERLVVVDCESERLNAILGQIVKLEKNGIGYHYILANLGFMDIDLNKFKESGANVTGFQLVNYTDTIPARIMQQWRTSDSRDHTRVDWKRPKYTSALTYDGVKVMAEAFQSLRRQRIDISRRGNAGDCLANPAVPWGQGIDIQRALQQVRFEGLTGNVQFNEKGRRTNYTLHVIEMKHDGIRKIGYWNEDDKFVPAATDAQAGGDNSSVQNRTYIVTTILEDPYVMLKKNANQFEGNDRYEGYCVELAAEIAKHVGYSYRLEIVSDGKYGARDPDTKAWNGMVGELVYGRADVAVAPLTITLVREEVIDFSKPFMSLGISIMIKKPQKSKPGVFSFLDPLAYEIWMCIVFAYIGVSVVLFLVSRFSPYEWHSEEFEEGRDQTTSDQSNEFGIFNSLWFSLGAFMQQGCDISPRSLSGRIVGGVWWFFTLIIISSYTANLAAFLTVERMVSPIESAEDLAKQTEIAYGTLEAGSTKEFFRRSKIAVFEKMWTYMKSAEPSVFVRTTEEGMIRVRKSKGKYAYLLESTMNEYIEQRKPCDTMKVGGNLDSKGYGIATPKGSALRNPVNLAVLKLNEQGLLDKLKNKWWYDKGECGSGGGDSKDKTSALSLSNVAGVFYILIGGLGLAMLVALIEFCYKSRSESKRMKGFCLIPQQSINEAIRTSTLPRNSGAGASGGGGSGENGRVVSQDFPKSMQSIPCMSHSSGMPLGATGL", "experiment": "biochemical", "description": "Displacement of [3H]AMPA from rat recombinant GluR1 expressed in Sf9 cells"}, "[12]": {"experiment": "Agonist activity at GluR2 L483Y mutant expressed in Xenopus laevis oocytes assessed as by effect on glutamate-induced current by two-electrode voltage clamp assay", "format": "functional, cell-based", "settings": "Homo sapiens, Oocyte"}, "[13]": {"experiment": "Agonist activity at GluR2 L483Y mutant expressed in Xenopus laevis oocytes assessed as by effect on glutamate-induced current relative to glutamate", "format": "functional, Homo sapiens, Oocyte"}}, "data": [{"smiles": "Cn1nnc(-c2onc(O)c2C[C@H](N)C(=O)O)n1", "values": [{"measurement": "Ki", "setting": "[1]", "result": 0.0027, "unit": "µM"}, {"measurement": "Ki", "setting": "[2]", "result": "> 100", "unit": "µM"}, {"measurement": "IC50", "setting": "[3]", "result": 11, "unit": "µM"}, {"measurement": "Ki", "setting": "[4]", "result": 19, "unit": "µM"}, {"measurement": "Ki", "setting": "[5]", "result": "8.1e-05", "unit": "µM"}, {"measurement": "Ki", "setting": "[6]", "result": 0.0039, "unit": "µM"}, {"measurement": "IC50", "setting": "[7]", "result": 0.009, "unit": "µM"}]}, {"smiles": "Cc1onc(O)c1CC(N)C(=O)O", "note": "(racemic) [(R,S)-AMPA]", "values": [{"measurement": "IC50", "setting": "[3]", "result": "> 100", "unit": "µM"}, {"measurement": "Ki", "setting": "[4]", "result": "> 1000", "unit": "µM"}]}, {"smiles": "NC(Cc1c(O)noc1-c1nnnn1Cc1ccccc1)C(=O)O", "note": "(racemic)", "values": [{"measurement": "IC50", "setting": "[3]", "result": "> 100", "unit": "µM"}, {"measurement": "Ki", "setting": "[8]", "result": "> 100", "unit": "µM"}, {"measurement": "IC50", "setting": "[7]", "result": "> 100", "unit": "µM"}]}, {"smiles": "CC(C)n1nnc(-c2onc(O)c2CC(N)C(=O)O)n1", "note": "(stereo not given)", "values": [{"measurement": "Ki", "setting": "[1]", "result": 2.4, "unit": "µM"}, {"measurement": "IC50", "setting": "[3]", "result": "> 100", "unit": "µM"}, {"measurement": "EC50", "setting": "[9]", "result": 71, "unit": "µM"}, {"measurement": "Ki", "setting": "[8]", "result": "> 100", "unit": "µM"}, {"measurement": "Ki", "setting": "[4]", "result": "> 100", "unit": "µM"}, {"measurement": "Ki", "setting": "[5]", "result": 31, "unit": "µM"}, {"measurement": "Ki", "setting": "[6]", "result": 2.9, "unit": "µM"}, {"measurement": "Ki", "setting": "[10]", "result": 3.7, "unit": "µM"}, {"measurement": "Ki", "setting": "[11]", "result": 0.01, "unit": "µM"}, {"measurement": "IC50", "setting": "[7]", "result": 6.2, "unit": "µM"}]}, {"smiles": "NC(Cc1c(O)noc1-c1nnn(Cc2ccccc2)n1)C(=O)O", "note": "(racemic)", "values": [{"measurement": "EC50", "setting": "[12]", "result": 95, "unit": "µM"}, {"measurement": "IC50", "setting": "[3]", "result": "> 100", "unit": "µM"}, {"measurement": "Activity", "setting": "[13]", "result": 84, "unit": "%"}, {"measurement": "EC50", "setting": "[9]", "result": 32, "unit": "µM"}, {"measurement": "Ki", "setting": "[8]", "result": 87, "unit": "µM"}, {"measurement": "Ki", "setting": "[4]", "result": 39, "unit": "µM"}, {"measurement": "Ki", "setting": "[5]", "result": 58, "unit": "µM"}, {"measurement": "IC50", "setting": "[7]", "result": 2.7, "unit": "µM"}]}, {"smiles": "CCCn1nnc(-c2onc(O)c2CC(N)C(=O)O)n1", "note": "(stereo not given)", "values": [{"measurement": "Ki", "setting": "[1]", "result": 0.73, "unit": "µM"}, {"measurement": "IC50", "setting": "[3]", "result": "> 100", "unit": "µM"}, {"measurement": "EC50", "setting": "[9]", "result": 32, "unit": "µM"}, {"measurement": "Ki", "setting": "[8]", "result": "> 100", "unit": "µM"}, {"measurement": "Ki", "setting": "[4]", "result": "> 100", "unit": "µM"}, {"measurement": "Ki", "setting": "[5]", "result": 5.5, "unit": "µM"}, {"measurement": "Ki", "setting": "[6]", "result": 1.6, "unit": "µM"}, {"measurement": "Ki", "setting": "[10]", "result": 1.2, "unit": "µM"}, {"measurement": "Ki", "setting": "[11]", "result": 0.0052, "unit": "µM"}, {"measurement": "IC50", "setting": "[7]", "result": 2.5, "unit": "µM"}]}, {"smiles": "CCn1nnc(-c2onc(O)c2CC(N)C(=O)O)n1", "note": "(stereo not given)", "values": [{"measurement": "Ki", "setting": "[1]", "result": 0.044, "unit": "µM"}, {"measurement": "IC50", "setting": "[3]", "result": "> 100", "unit": "µM"}, {"measurement": "EC50", "setting": "[9]", "result": 3.5, "unit": "µM"}, {"measurement": "Ki", "setting": "[8]", "result": "> 100", "unit": "µM"}, {"measurement": "Ki", "setting": "[4]", "result": "> 100", "unit": "µM"}, {"measurement": "Ki", "setting": "[5]", "result": 2.9, "unit": "µM"}, {"measurement": "Ki", "setting": "[6]", "result": 0.08, "unit": "µM"}, {"measurement": "Ki", "setting": "[10]", "result": 0.045, "unit": "µM"}, {"measurement": "Ki", "setting": "[11]", "result": 0.15, "unit": "µM"}, {"measurement": "IC50", "setting": "[7]", "result": 0.13, "unit": "µM"}]}]}
